Assay [1] has as its target T1, human IDO1 (Homo sapiens, UniProt P14902). Description: Human IDO-1 inhibitory activity in HEK cells (human IDO1/HEK293 cellular assay). In kind it is cell-based. Also on record: expressed in transfected cells. The conditions noted are these: HEK human IDO-1 cellular assay; 500 nM reference standard = 100% inhibition, DMSO = 0%. On the procedure:
They were cultured in medium (DMEM with 10% FBS) containing 1 mg/ml G418 for two weeks.
The human IDO1/HEK293 cells were seeded at 10,000 cells per 50 μL per well with RPMI/phenol red free media contains 10% FBS in a 384-well black wall clear bottom tissue culture plate (Matrix Technologies LLC) 100 nL of certain concentration of compound was then added to each well using ECHO liquid handling systems. The cells were incubated for 20 hours in 37° C. incubator with 5% CO2.
The compound treatments were stopped by adding trichloroacetic acid (Sigma-Aldrich) to a final concentration at 0.2%. The cell plate was further incubated at 50° C. for 30 minute. The equal volume supernatant (20 μL) and 0.2% (w/v) Ehrlich reagent (4-dimethylaminobenzaldehyde, Sigma-Aldrich) in glacial acetic acid were mixed in a new clear bottom 384-well plate. This plate was then incubated at room temperature for 30 minute. The absorbance at 490 nm was measured on Envision plate reader.

In assay [2] the target is T1, human IDO1. The assay can be described thus: Human IDO-1 inhibitory activity in Hela cells (interferon-gamma stimulated). In kind it is cell-based. Also on record: endogenous in cells; host or cells: HeLa cells stimulated with interferon-gamma. The conditions noted are these: 18 hours, unstimulated wells = 100% inhibition. As for the experimental part: HeLa cells were seeded at 20,000 cells per 30 μL per well with RPMI/phenol red free media containing 10% FBS in a 384-well tissue culture plate (black with clear bottoms). 50 nL of compound was added to cells and incubated at 37° C. for one hour. 20 μL of the recombinant human Interferon-gamma (R&D System, Cat. #285-IF, at final concentration of 10 ng/ml) or recombinant murine Interferon-gamma (PEPROTECH® Inc., Cat. #315-05, final concentration of 5 ng/ml) was added to activate IDO signaling. The cells were incubated for 18 hours in 37° C. incubator with 5% CO2.
Compound treatment was stopped by adding 5 μl trichloroacetic acid to a final concentration of 3%. Subsequently, the cell plate was further incubated at 50° C. for 30 minute. An equal volume supernatant (20 μL) and 2% (w/v) Ehrlich reagent (4-dimethylaminobenzaldehyde) in glacial acetic acid were mixed in a new clear bottom 384-well plate. This plate was incubated at room temperature for 30 minutes. Absorbance at 490 nm was measured on Envision plate reader.
Compound IC50 values were calculated using counts from unstimulated (no INF-gamma treatment) wells as 100% inhibition. INF-gamma treatment without compound treatment as 0% inhibition.

T1 sequence (P14902 whole entry): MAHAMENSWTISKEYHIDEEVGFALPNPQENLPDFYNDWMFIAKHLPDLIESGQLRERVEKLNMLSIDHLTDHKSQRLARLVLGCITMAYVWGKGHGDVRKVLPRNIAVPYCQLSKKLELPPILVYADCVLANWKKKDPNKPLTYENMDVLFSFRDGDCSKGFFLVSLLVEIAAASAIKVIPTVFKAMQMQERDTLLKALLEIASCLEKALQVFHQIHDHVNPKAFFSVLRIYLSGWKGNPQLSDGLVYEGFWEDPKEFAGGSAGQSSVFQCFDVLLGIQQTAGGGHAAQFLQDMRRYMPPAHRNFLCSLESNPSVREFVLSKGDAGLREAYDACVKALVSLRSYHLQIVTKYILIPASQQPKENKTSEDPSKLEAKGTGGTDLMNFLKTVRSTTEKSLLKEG

For orientation: IC50 means the concentration at which inhibition is half-maximal. A high value points to weaker potency. Compound `CCC(CC(=O)O)c1cc(F)c(N(CC(C)C)C2CCCCC2)c(NC(=O)Nc2ccc(Cl)cc2F)c1` (racemic) [Example 1090, 3-(3-(3-(4-chloro-2-fluorophenyl)ureido)-4-(cyclohexyl(isobutyl)amino)-5-fluorophenyl)pentanoic acid] gave an IC50 against human IDO1 [1] of less than 5 nM. Still for that read-out and setting: next, `CCN(c1ccc([C@H](COC)CC(=O)O)cc1Nc1cnc(OC)nc1)C1CCOCC1` (single isomer, unassigned) [Example 387]: less than 50 nM. On human IDO1 [2], `CCN(c1ccc([C@H](COC)CC(=O)O)cc1Nc1ccc(C#N)cn1)C1CCOCC1` (single isomer, unassigned) [Example 389] registered a half-inhibitory concentration (IC50) of less than 50 nM. The same measure, in the same setting: next, `CCC(CC(=O)O)c1ccc(N2CCN(C(=O)OC)CC2)c(Nc2ccc(C#N)cc2)c1` (single isomer, unassigned) [Example 668 Enantiomer 2, 3-(3-((4-Cyanophenyl)amino)-4-(4-(methoxycarbonyl)piperazin-1-yl)phenyl)pentanoic Acid]: more than 50 nM; `CCN(c1cc(F)c(C(COC)CC(=O)O)cc1Nc1ccc(C#N)c(F)c1)C1CCOCC1` (single isomer, unassigned) [Example 853, 3-(5-((4-cyano-3-fluorophenyl)amino)-4-(ethyl(tetrahydro-2H-pyran-4-yl)amino)-2-fluorophenyl)-4-methoxybutanoic acid]: less than 5 nM. On the same count and under the same terms, next, `CCN(c1ccc([C@H](COC)CC(=O)O)cc1Nc1ccc(C#N)c(OCC(F)(F)F)c1)C1CCOCC1` (single isomer, unassigned) [Example 409]: less than 50 nM; `CCN(c1ccc([C@H](COC)CC(=O)O)cc1Nc1ccc(F)cn1)C1CCOCC1` (single isomer, unassigned) [Example 400]: less than 50 nM; “(S)-3-(3-((4-cyano-3- ethoxyphenyl)amino)-4- (ethyl(tetrahydro-2H-pyran- 4-yl)amino)phenyl)-4- methoxybutanoic acid [Example 380]”: less than 50 nM. Same read-out and setting: next, `CCOc1ncc(Nc2cc(C(COC)CC(=O)O)ccc2N(CC)C2CCS(=O)(=O)CC2)cn1` (single isomer, unassigned) [Example 175, 3-(4-((1,1-dioxidotetrahydro-2H-thiopyran-4-yl)(ethyl)amino)-3-((2-ethoxypyrimidin-5-yl)amino)phenyl)-4-methoxybutanoic acid]: more than 50 nM; `CCN(c1ccc([C@H](COC)CC(=O)O)cc1Nc1ccc2c(c1)OC(F)(F)O2)C1CCOCC1` (single isomer, unassigned) [Example 415]: less than 5 nM; `CCN(c1ccc([C@H](COC)CC(=O)O)cc1Nc1cccc(C#N)c1)C1CCOCC1` (single isomer, unassigned) [Example 405]: more than 50 nM. In turn, `CCN(c1ccc([C@H](COC)CC(=O)O)cc1Nc1ccc(F)cc1)C1CCOCC1` (single isomer, unassigned) [Example 412] registered a half-maximal inhibitory concentration (IC50) against human IDO1 [2] of less than 5 nM. Regarding “(S)-3-(4-((1,1-dioxidotetrahydro- 2H-thiopyran-4-yl)(ethyl)amino)- 3-((2-ethoxypyrimidin-5-yl)amino) phenyl)-4-isopropoxybutanoic acid [Example 328]”, the half-inhibitory concentration (IC50) against human IDO1 [2] was more than 50 nM. On the same count and under the same terms, next, `CCN(c1ccc([C@H](COC)CC(=O)O)cc1Nc1ccc(C#N)cc1C)C1CCOCC1` (single isomer, unassigned) [Example 404]: less than 50 nM.

The compound “(R)-3-(4-((1,1-dioxidotetrahydro- 2H-thiopyran-4-yl)(ethyl)amino)- 3-((4-fluorophenyl)amino)phenyl)- 4-isopropoxybutanoic acid [Example 331]” returned an IC50 against human IDO1 [2] of less than 50 nM. On the same count and under the same terms, next, `COCC(CC(=O)O)c1ccc(N2CCOC(C)C2)c(Nc2ccc(Cl)cc2)c1` (single isomer, unassigned) [Example 1311 D1, 3-(3-((4-Chlorophenyl)amino)-4-(2-methylmorpholino)phenyl)-4-methoxybutanoic Acid]: more than 50 nM; `CCN(c1ccc([C@H](COC)CC(=O)O)cc1Nc1ccc(C#N)c(Cl)c1)C1CCOCC1` (single isomer, unassigned) [Example 418]: less than 50 nM; `CCN(c1cc(F)c(C(COC)CC(=O)O)cc1Nc1ccc(C#N)cc1F)C1CCOCC1` (single isomer, unassigned) [Example 854, 3-(5-((4-cyano-2-fluorophenyl)amino)-4-(ethyl(tetrahydro-2H-pyran-4-yl)amino)-2-fluorophenyl)-4-methoxybutanoic acid]: less than 5 nM. Same read-out and setting: under “(R)-3-(4-(ethyl(tetrahydro-2H- pyran-4-yl)amino)-3-((3- (1,1,2,2-tetrafluoroethoxy) phenyl)amino)phenyl)-4- methoxybutanoic acid [Example 398]” stands less than 5 nM; under `CCC(CC(=O)O)c1ccc(N2CCOC(C)(C)C2)c(NC(=O)Nc2ccc(Cl)cc2F)c1` (single isomer, unassigned) [Example 1322 E2, 3-(3-(3-(4-Chloro-2-fluorophenyl)ureido)-4-(2,2-dimethylmorpholino)phenyl)pentanoic Acid], more than 50 nM.

Consider “(R)-3-(4-((1,1-dioxidotetrahydro- 2H-thiopyran-4-yl)(ethyl)amino)- 3-((2-methoxypyrimidin-5- yl)amino)phenyl)-4- isopropoxybutanoic acid [Example 332]”, for which the half-inhibitory concentration (IC50) on human IDO1 [2] was more than 50 nM. As to `CCN(c1ccc([C@H](COC)CC(=O)O)cc1Nc1ccc(C#N)c(OC)c1)C1CCOCC1` (single isomer, unassigned) [Example 417], the IC50 against human IDO1 [2] was less than 50 nM. Same read-out and setting: next, `CCN(c1ccc([C@H](COC)CC(=O)O)cc1Nc1ccc(C#N)cc1F)C1CCOCC1` (single isomer, unassigned) [Example 392]: less than 5 nM; “(S)-3-(3-((4-chlorophenyl)amino)- 4-((1,1-dioxidotetrahydro-2H- thiopyran-4-yl)(ethyl)amino) phenyl)-4-isopropoxybutanoic acid [Example 325]”: less than 5 nM; `CCN(c1ccc(C(COC)CC(=O)O)cc1Nc1ccc(C#N)cc1)C1CCCOC1` (single isomer, unassigned) [264 E1]: less than 50 nM. On the same count and under the same terms, under “(R)-3-(4-((1,1-dioxidotetrahydro- 2H-thiopyran-4-yl)(ethyl)amino)- 3-((2-ethoxypyrimidin-5- yl)amino)phenyl)-4- isopropoxybutanoic acid [Example 333]” stands more than 50 nM; under `COCC(CC(=O)O)c1ccc(N2C[C@@H](C)O[C@@H](C)C2)c(Nc2ccc(Cl)cc2)c1` (single isomer, unassigned) [Example 604], more than 50 nM; under `CCN(c1ccc([C@H](COC)CC(=O)O)cc1Nc1ccc(C#N)c(OCC(F)F)c1)C1CCOCC1` (single isomer, unassigned) [Example 408], less than 50 nM.

Compound `CCN(c1ccc([C@H](COC)CC(=O)O)cc1Nc1ncc(Cl)cn1)C1CCOCC1` (single isomer, unassigned) [Example 394] gave an IC50 against human IDO1 [2] of less than 50 nM.

On to `CCN(c1ccc(C(COC)CC(=O)O)cc1Nc1ccc(C#N)cc1)C1CCCOC1` (single isomer, unassigned) [264 E2], for which, on human IDO1 [2], the IC50 is less than 5 nM.

At human IDO1 [2], `CCN(c1ccc([C@H](COC)CC(=O)O)cc1Nc1ncc(F)cn1)C1CCOCC1` (single isomer, unassigned) [Example 396] came in with an IC50 of more than 50 nM. On the same count and under the same terms, under “3-(4-((1,1-dioxido- tetrahydro-2H- thiopyran-4-yl) (ethyl)amino)-3- ((4-fluorophenyl) amino)phenyl)-4- isopropoxy- butanoic acid [Example 341]” stands more than 50 nM; under `COCC(CC(=O)O)c1ccc(N2C[C@@H](C)O[C@@H](C)C2)c(NC(=O)Nc2ccc(Cl)cc2F)c1` (single isomer, unassigned) [Example 607], more than 50 nM; under `CCN(c1ccc([C@H](COC)CC(=O)O)cc1Nc1ccccc1C#N)C1CCOCC1` (single isomer, unassigned) [Example 406], more than 50 nM. The same measure, in the same setting: next, `CCN(c1ccc([C@H](COC)CC(=O)O)cc1Nc1ccc(S(=O)(=O)CC)cc1)C1CCOCC1` (single isomer, unassigned) [Example 421]: more than 50 nM; `CCN(c1ccc([C@H](COC)CC(=O)O)cc1Nc1ccc(Cl)cc1F)C1CCOCC1` (single isomer, unassigned) [Example 399]: less than 5 nM; `CCN(c1ccc([C@H](COC)CC(=O)O)cc1Nc1ccc(C#N)c(F)c1)C1CCOCC1` (single isomer, unassigned) [Example 390]: less than 5 nM.

The values above are taken from patent US10399933B2, “Inhibitors of indoleamine-2,3-dioxygenase for the treatment of cancer” (BRISTOL-MYERS SQUIBB COMPANY, priority 2015, dated 2019).
